Values quoted from earlier work in US20220079889A1, “USE OF CANNABANOIDS IN THE TREATMENT OF PROLIFERATIVE DIABETIC RETINOPATHY” (VERDANT PHARMACEUTICALS, LLC, priority 2020, published 2022).

Settings: typical value; cited from earlier work

Molecule	time of persistence in the target neovasculature
C=Cc1c(C)c2cc3nc(c(CC(=O)N[C@@H](CC(=O)O)C(=O)O)c4[nH]c(cc5nc(cc1[nH]2)C(C)=C5CC)c(C)c4C(=O)O)[C@@H](CCC(=O)O)[C@@H]3C [N-aspartyl chlorin e6]	about twenty
CC(=O)[O-].CC(=O)[O-].CCc1c(CC)c2cc3nc(cnc4cc(OCCOCCOCCOC)c(OCCOCCOCCOC)cc4ncc4nc(cc1[n-]2)C(CCCO)=C4C)C(C)=C3CCCO.O.[Lu+3] [lutetium texaphyrin]	about twenty
benzoporphyrin derivative [bcnzoporphyrin derivative]	about fifty
